Results reported in patent US10450364B2 (priority 2017, dated 2019).
Values joined by “and” are separate entries in the source; they are usually repeats but may differ in a detail not shown here. Identical values can stand only once. Where a SMILES comes first, the peptide text is derived from it. Bridges are numbered along the chain shown (N, C = ends). [ ]: non-standard residue; d: D form. The star is where a group is joined. Ileψ(thiazoline)Cys = CC[C@H](C)[C@H](N)C1=N[C@H](C(=O)*)CS1; dOrn = NCCC[C@@H](N)C(=O)O

Experiments:
Clostridium perfringens [1] = assay type: in vivo, broiler chickens; conditions: subclinical NE
C. perfringens = system: C. perfringens; parameters: species or system broiler chickens (Cobb 500); conditions: in vivo
Clostridium perfringens [2] = system: Clostridium perfringens; parameters: species or system broiler chickens (Cobb 500); conditions: in vivo
[3] = raw data of individual birds, 0.5% egg powder, cells marked * removed as outlier

| Compound | Weight gain (g) day 0-6 post challenge, Average (Clostridium perfringens [1]; group average, 0.5% egg powder) [g] | Weight gain (g) day 0-11 post challenge, Average (Clostridium perfringens [1]; group average, 0.5% egg powder) [g] | Lesion Score - day 2 post challenge, Average (Clostridium perfringens [1]; group average, egg powder 0.5% in feed (Vir 20 g/ton), scale 0 to 4) | Weight gain (g) day 0-6 post challenge (Clostridium perfringens [1]; [3]) | Weight gain (g) day 0-11 post challenge (Clostridium perfringens [1]; [3]) | Lesion Score - day 2 post challenge (Clostridium perfringens [1]; raw data of individual birds, egg powder 0.5% in feed (Vir 20 g/ton), scale 0 (none) to 4 (high)) | % NE Mortality (C. perfringens) [bc %] | Feed Intake D 0-28 (C. perfringens) [bcd] | Lesion Score (0-3) (C. perfringens) [bc] | Weight Gain D 0-28 (C. perfringens) [bcd] | % NE Mortality (Clostridium perfringens [2]) [bcde %] | Feed Intake D 0-28 (Clostridium perfringens [2]) [bc] | Lesion Score (0-3) (Clostridium perfringens [2]) [bc] | Weight Gain D 0-28 (Clostridium perfringens [2]) [bcd] |
| --- | --- | --- | --- | --- | --- | --- | --- | --- | --- | --- | --- | --- | --- | --- |
| Virginiamycin | 226 | 570 | 0.5 | 267 g and 211 g (2×) and 256 g and 252 g and 170 g and 213 g and 289 g and 162 g (2×) and 229 g and 241 g and 203 g and 157 g and 195 g and 238 g and 321 g and 233 g and 319 g and 182 g and 239 g | 618 g and 554 g and 520 g and 540 g and 467 g and 479 g and 544 g and 566 g and 420 g and 552 g and 607 g and 686 g and 568 g and 723 g and 709 g | 1 (3×) and 0 (3×) |  |  |  |  |  |  |  |  |
| CC[C@H](C)[C@H](N)C1=N[C@H](C(=O)N[C@@H](CC(C)C)C(=O)N[C@H](CCC(=O)O)C(=O)N[C@H](C(=O)N[C@H]2CCCCNC(=O)[C@H](CC(N)=O)NC(=O)[C@@H](CC(=O)O)NC(=O)[C@H](Cc3cnc[nH]3)NC(=O)[C@@H](Cc3ccccc3)NC(=O)[C@H]([C@@H](C)CC)NC(=O)[C@@H](CCCN)NC2=O)[C@@H](C)CC)CS1 [bacitracin] ({Ileψ(thiazoline)Cys}-L[dE]IK[dOrn]I[dF]H[dD]N; lactam 4-C) |  |  |  |  |  |  | 9.4 | 6.708 | 1.3 | 0.648 | 10.9 | 8.040 | 1.0 | 0.590 |
